By IC50 is commonly meant the concentration that inhibits the measured activity by half.

T1 sequence (Q96P20 whole entry): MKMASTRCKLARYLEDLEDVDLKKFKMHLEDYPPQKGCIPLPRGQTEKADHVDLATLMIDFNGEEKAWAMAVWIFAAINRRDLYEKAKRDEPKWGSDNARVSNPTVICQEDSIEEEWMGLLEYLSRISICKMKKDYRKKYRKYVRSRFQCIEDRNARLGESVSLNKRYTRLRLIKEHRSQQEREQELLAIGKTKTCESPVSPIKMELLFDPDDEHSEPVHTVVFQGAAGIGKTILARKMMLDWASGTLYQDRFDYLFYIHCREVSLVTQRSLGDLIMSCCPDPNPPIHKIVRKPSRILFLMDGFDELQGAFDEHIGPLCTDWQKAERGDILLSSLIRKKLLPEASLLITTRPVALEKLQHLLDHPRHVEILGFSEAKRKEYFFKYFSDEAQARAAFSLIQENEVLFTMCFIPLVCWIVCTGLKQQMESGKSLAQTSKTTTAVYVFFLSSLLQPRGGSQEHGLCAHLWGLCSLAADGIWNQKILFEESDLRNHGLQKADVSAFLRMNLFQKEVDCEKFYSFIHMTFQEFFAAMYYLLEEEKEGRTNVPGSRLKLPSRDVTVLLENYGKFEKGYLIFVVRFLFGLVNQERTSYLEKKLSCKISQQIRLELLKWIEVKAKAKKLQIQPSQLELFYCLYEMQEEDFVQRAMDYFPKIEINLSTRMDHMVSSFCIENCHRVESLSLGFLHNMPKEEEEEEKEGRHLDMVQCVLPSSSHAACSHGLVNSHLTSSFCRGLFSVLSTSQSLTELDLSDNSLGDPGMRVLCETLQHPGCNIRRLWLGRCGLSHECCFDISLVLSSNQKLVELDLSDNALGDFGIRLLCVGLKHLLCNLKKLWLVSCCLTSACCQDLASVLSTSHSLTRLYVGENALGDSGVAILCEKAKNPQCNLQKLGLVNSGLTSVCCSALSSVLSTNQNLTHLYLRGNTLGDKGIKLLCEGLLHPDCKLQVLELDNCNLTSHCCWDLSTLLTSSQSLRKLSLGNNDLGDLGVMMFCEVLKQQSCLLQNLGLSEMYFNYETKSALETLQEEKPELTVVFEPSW

This experiment addresses T1, NLRP3 inflammasome (Homo sapiens, UniProt Q96P20).
T1 construct: host or cells: THP1-Null cells (PMA-differentiated, LPS-primed, nigericin-stimulated)
Nature of the experiment: Evaluation of NLRP3 inflammasome inhibitory activity (inhibition of IL-1β production in THP1-Null cells). Type of experiment: cell-based. Conditions: 0.5 µmol/L PMA overnight, 1 µg/mL Lipopolysaccharides 3 hours, Nigericin 7.5 µmol/L 1.5 hours, AlphaLISA Human IL-1β. Here is the method:
The NLRP3 inflammasome inhibitory activity of test compounds were evaluated on the basis of the inhibitory activity of the IL-1β production in THP1-Null cells (Product Number: thp-null, InvivoGen). Cells were maintained for culture in RPMI-1640 media containing 10% (v/v) fetal bovine serum, 25 mmol/L HEPES, 100 U/mL penicillin, 100 µg/mL streptomycin, 100 µg/mL normocin, and 200 µg/mL hygromycin B (set at 37°C, 5% CO2/95% air) .
Cells were suspended with media for assay containing 0.5 µmol/L PMA (RPMI-1640 media containing 10% (v/v) fetal bovine serum, 100 U/mL penicillin, and 100 µg/mL streptomycin), and the suspended cells were seeded on Corning (registered trademark) 384-well Flat Clear Bottom Black Polystyrene TC-treated Microplates (25,000 cells/25 µL/well), followed by incubation (set at 37°C, 5% CO2/95% air) overnight. The supernatant of the culture was removed, and thereto was added media for assay (25 µL/well) containing 1 µg/mL Lipopolysaccharides (Product Number: L2654, Sigma-Aldrich (registered trademark)). Then, the culture was further incubated for 3 hours (set at 37°C, 5% CO2/95% air) . The supernatant of the culture was removed. Then, a vehicle solution prepared from Opti-MEM (trademark) medium (Product Number: 31985-070, Invitrogen) was added to blank-setting wells and control-setting wells (20 µL/well), followed by incubation for 15 minutes (set at 37°C, 5% CO2/95% air). A solution containing a test compound (20 µL/well) was added to test compound-setting wells. Further, Opti-MEM (trademark) medium containing Nigericin (Product Number: N7143, Sigma-Aldrich (registered trademark)) was added to the control-setting wells and test compound-setting wells (5 µL/well), followed by incubation for 1.5 hours (set at 37°C, 5% CO2/95% air). The final concentration of Nigericin was adjusted to be 7.5 µmol/L. 5 µL/well of Opti-MEM (trademark) medium was added to the blank-setting wells. The supernatant of the culture was cryonically stored (set at -20°C) until measurement of IL-1β.
The amount of IL-1β in the culture supernatant was quantitated with AlphaLISA (registered trademark) Human IL-1β Detection Kit (Product Number: AL220C, Perkin Elmer). Fluorescence intensity was measured with a microplate reader EnSpier (Model number: 2300-00J, Perkin Elmer) or EnSight (Model number: HH34000000, Perkin Elmer) according to procedure manuals attached thereto. Inhibition rates of the test compound-setting wells were calculated on the basis of 100% for the blank-setting wells and 0% for the control-setting wells. IC50 values (i.e., 50% inhibitory concentrations) of the test compounds were calculated by logistic regression analysis.
(In Alpha technology, singlet oxygen from a donor bead excites a nearby acceptor bead.)
`CCc1cc(Br)ccc1-n1cc2c(=O)[nH]c(OC)nc2n1` [Example 70] yielded an IC50 of 25 nM.

The compound `Cc1cc(C2CC2)cc(C)c1-n1cc2c(=O)[nH]c(OCCC3CCOCC3)nc2n1` [Example 73] registered an IC50 of 18 nM.

`Cc1cc(C2CC2)cc(C)c1-n1cc2c(=O)[nH]c(OC3CCS(=O)(=O)CC3)nc2n1` [Example 46] gave an IC50 of 33 nM.

Compound `COc1nc2nn(-c3ccc(Cl)cc3C)cc2c(=O)[nH]1` [Example 11] gave an IC50 of 50 nM.

In turn, `COc1nc2nn(-c3c(C)cc(C4CC4)cc3OC(F)F)cc2c(=O)[nH]1` [Example 105] displayed a half-maximal inhibitory concentration (IC50) of 14 nM.

`Cc1cc(Br)cc(C)c1-n1cc2c(=O)[nH]c(O[C@H]3CCOC3)nc2n1` [Example 37] showed an IC50 of 13 nM.

Compound `COc1ccc(-n2cc3c(=O)[nH]c(OC)nc3n2)c(C(F)(F)F)c1` [Example 24] came in with an IC50 of 53 nM.

Take `COc1nc2nn(-c3ccc(C4CC4)cc3C3CC3)cc2c(=O)[nH]1` [Example 56]: the concentration for half-maximal inhibition (IC50) is 18 nM.

With `COCc1cc(C)c(-n2cc3c(=O)[nH]c(OC)nc3n2)c(C)c1` [Example 87], the midpoint of inhibition, the IC50, lay at 1200 nM.

`COc1nc2nn(-c3c(C)cc(C)cc3C)cc2c(=O)[nH]1` [Example 8] came in with an IC50 of 37 nM.

For `Cc1cc(Br)cc(C)c1-n1cc2c(=O)[nH]c(OCCCC#N)nc2n1` [Example 114], the IC50 is 19 nM.

In turn, `CCOc1nc2nn(-c3c(C)cc(OC(F)F)cc3C)cc2c(=O)[nH]1` [Example 54] had an IC50 of 13 nM.

Compound `COCc1cc(OC)cc(C)c1-n1cc2c(=O)[nH]c(OC)nc2n1` [Example 93] had an IC50 of 230 nM.

Consider `COc1nc2nn(-c3c(C)cc(C4CC4(F)F)cc3C)cc2c(=O)[nH]1` (racemic) [Example 120], for which the IC50 worked out at 88 nM.

With `COc1nc2nn(-c3c(C)cc(C(C)(C)O)cc3C)cc2c(=O)[nH]1` [Example 31], the IC50 was found to be 2400 nM.

For the compound `COc1nc2nn(-c3ccc(Cl)c(C)c3C)cc2c(=O)[nH]1` [Example 32], it took 760 nM to reach half-maximal inhibition (IC50).

In turn, `COCC1(COc2nc3nn(-c4c(C)cc(Br)cc4C)cc3c(=O)[nH]2)CC1` [Example 18] registered a concentration for half-maximal inhibition (IC50) of 34 nM.

As to `Cc1cc(Br)cc(C)c1-n1cc2c(=O)[nH]c(OC3CCC(S(C)(=O)=O)CC3)nc2n1` (centres unmarked) [Example 52], it took 59 nM to reach half-maximal inhibition (IC50).

The compound `COc1nc2nn(-c3c(C)cc(OC(F)F)cc3C)cc2c(=O)[nH]1` [Example 39, 2-(4-(difluoromethoxy)-2,6-dimethylphenyl)-6-methoxy-2,5-dihydro-4H-pyrazolo[3,4-d]pyrimidin-4-one] came in with an IC50 of 18 nM.

Turning to `CCc1cc(OC)cc(C)c1-n1cc2c(=O)[nH]c(OC)nc2n1` [Example 86], the half-inhibitory concentration (IC50) was 49 nM.

Compound `COc1nc2nn(-c3ccc(Cl)cc3CC3CC3)cc2c(=O)[nH]1` [Example 55] registered an IC50 of 70 nM.

`COc1nc2nn(-c3ccc(OC(F)F)cc3C(F)(F)F)cc2c(=O)[nH]1` [Example 63]: half-maximal inhibition (IC50) required 80 nM.

`COc1nc2nn(-c3c(C)cc(C(C)(F)F)cc3Cl)cc2c(=O)[nH]1` [Example 84] showed a half-maximal inhibitory concentration (IC50) of 45 nM.

Consider `Cc1cc(Br)cc(C)c1-n1cc2c(=O)[nH]c(OCCC(C)(C)C#N)nc2n1` [Example 109], for which the 50% inhibitory concentration (IC50) worked out at 67 nM.

Turning to `CCOc1nc2nn(-c3c(C)cc(C)cc3C)cc2c(=O)[nH]1` [Example 9], the IC50 came to 23 nM.

`Cc1cc(Br)cc(C)c1-n1cc2c(=O)[nH]c(OCCCS(=O)(=O)C(C)C)nc2n1` [Example 58]: half-maximal inhibition (IC50) was put at 6 nM.

`COc1nc2nn(-c3c(C)cc(C(F)(F)F)cc3C)cc2c(=O)[nH]1` [Example 22] showed a concentration for half-maximal inhibition (IC50) of 43 nM.

With `COc1nc2nn(-c3cc4c(cc3Cl)OCCC4)cc2c(=O)[nH]1` [Example 103], the IC50 is 110 nM.

`Cc1cc(Br)cc(C)c1-n1cc2c(=O)[nH]c(OCCC3COC3)nc2n1` [Example 30] showed a half-maximal inhibitory concentration (IC50) of 51 nM.

Compound `CCc1cc(C(C)(F)F)cc(C)c1-n1cc2c(=O)[nH]c(OC)nc2n1` [Example 89] gave an IC50 of 24 nM.

`COc1nc2nn(-c3cc4c(cc3Cl)OCC4)cc2c(=O)[nH]1` [Example 82] gave a concentration for half-maximal inhibition (IC50) of 75 nM.

For the compound `Cc1cc(C)c(-n2cc3c(=O)[nH]c(OCc4ccccc4)nc3n2)c(C)c1` [Example 7], the midpoint of inhibition, the IC50, lay at 72 nM.

In the case of `COCc1cc(Br)cc(C)c1-n1cc2c(=O)[nH]c(OC)nc2n1` [Example 88], the 50% inhibitory concentration (IC50) stood at 44 nM.

For the compound `Cc1cc(C2CC2)cc(C)c1-n1cc2c(=O)[nH]c(OCCCS(=O)(=O)C(C)(C)C)nc2n1` [Example 74], the half-inhibitory concentration (IC50) came out at 3 nM.

As for `COc1nc2nn(-c3c(Cl)cc(F)cc3OC)cc2c(=O)[nH]1` [Example 77], the half-maximal inhibitory concentration (IC50) amounted to 2400 nM.

`COc1ccc(-n2cc3c(=O)[nH]c(OC)nc3n2)c(C2CC2)c1` [Example 48] registered an IC50 of 190 nM.

With `COc1nc2nn(-c3ccc(C)cc3C)cc2c(=O)[nH]1` [Example 2], it took 79 nM to reach half-maximal inhibition (IC50).

With `COc1nc2nn(-c3c(C)cc(Br)cc3CF)cc2c(=O)[nH]1` [Example 115], the half-maximal inhibitory concentration (IC50) came to 13 nM.

Regarding `COc1nc2nn(-c3ccccc3C)cc2c(=O)[nH]1` [Example 1], the IC50 turned out to be 4200 nM.

Compound `CCc1cc(C2CC2)ccc1-n1cc2c(=O)[nH]c(OC)nc2n1` [Example 80] gave an IC50 of 17 nM.

Turning to `Cc1cc(C)c(-n2cc3c(=O)[nH]c(OCC(F)(F)F)nc3n2)c(C)c1` [Example 6], it took 180 nM to reach half-maximal inhibition (IC50).

For the compound `COc1nc2nn(-c3c(C)cc(C4(O)CCC4)cc3C)cc2c(=O)[nH]1` [Example 27], the 50% inhibitory concentration (IC50) amounted to 990 nM.

Take `Cc1cc(Br)cc(C)c1-n1cc2c(=O)[nH]c(OCC3(C#N)CC3)nc2n1` [Example 17]: the 50% inhibitory concentration (IC50) turned out to be 73 nM.

Regarding `COc1nc2nn(-c3c(Cl)cc(C(F)(F)F)cc3OC)cc2c(=O)[nH]1` [Example 15], half-maximal inhibition (IC50) was put at 1300 nM.

Consider `COc1nc2nn(-c3c(C)cc(C4CC4)cc3Cl)cc2c(=O)[nH]1` [Example 83], for which the IC50 came to 8 nM.

In turn, `COc1nc2nn(-c3ccc(C4CC4)cc3C(F)(F)F)cc2c(=O)[nH]1` [Example 45] registered an IC50 of 14 nM.

`COc1cc(F)c(-n2cc3c(=O)[nH]c(OC)nc3n2)c(Cl)c1` [Example 76] returned an IC50 of 74 nM.

`COCc1cc(Br)ccc1-n1cc2c(=O)[nH]c(OC)nc2n1` [Example 41]: the midpoint of inhibition, the IC50, lay at 70 nM.

For the compound `COc1nc2nn(-c3c(C)cc(F)cc3C)cc2c(=O)[nH]1` [Example 90], the half-maximal inhibitory concentration (IC50) was 740 nM.

For `COc1nc2nn(-c3ccc(Br)cc3C)cc2c(=O)[nH]1` [Example 69], the IC50 was 57 nM.

With `Cc1cc(C2CC2)cc(C)c1-n1cc2c(=O)[nH]c(OCCC(C)(C)C#N)nc2n1` [Example 117], the half-maximal inhibitory concentration (IC50) was found to be 31 nM.

As for `Cc1cc(Br)cc(C)c1-n1cc2c(=O)[nH]c(OC3CCS(=O)(=O)CC3)nc2n1` [Example 44], half-maximal inhibition (IC50) was put at 43 nM.

Consider `COc1nc2nn(-c3c(C)cc(Br)cc3OC(F)F)cc2c(=O)[nH]1` [Example 104], for which it took 13 nM to reach half-maximal inhibition (IC50).

In the case of `Cc1cc(Br)cc(C)c1-n1cc2c(=O)[nH]c(OCCC3CCOCC3)nc2n1` [Example 72], the IC50 was found to be 27 nM.

With `[2H]C([2H])([2H])Oc1nc2nn(-c3ccc(C(F)(F)F)cc3OC([2H])([2H])[2H])cc2c(=O)[nH]1` [Example 10], the IC50 is 61 nM.

Compound `COc1nc2nn(-c3ccc(C4CC4)cc3OC)cc2c(=O)[nH]1` [Example 40] yielded a 50% inhibitory concentration (IC50) of 49 nM.
